Our source for the IC50 values is US20220267298A1 (priority 2019, published 2022).

Molecules are shown by their SMILES. “And” between values parts separate entries of the source, which are not always exact repeats. Identical values can stand only once.

In general, IC50 refers to the concentration needed to halve the response being measured.

In one assay the target is T1, GRK2 (Homo sapiens, UniProt P25098).
T1 sequence (P25098 1-689): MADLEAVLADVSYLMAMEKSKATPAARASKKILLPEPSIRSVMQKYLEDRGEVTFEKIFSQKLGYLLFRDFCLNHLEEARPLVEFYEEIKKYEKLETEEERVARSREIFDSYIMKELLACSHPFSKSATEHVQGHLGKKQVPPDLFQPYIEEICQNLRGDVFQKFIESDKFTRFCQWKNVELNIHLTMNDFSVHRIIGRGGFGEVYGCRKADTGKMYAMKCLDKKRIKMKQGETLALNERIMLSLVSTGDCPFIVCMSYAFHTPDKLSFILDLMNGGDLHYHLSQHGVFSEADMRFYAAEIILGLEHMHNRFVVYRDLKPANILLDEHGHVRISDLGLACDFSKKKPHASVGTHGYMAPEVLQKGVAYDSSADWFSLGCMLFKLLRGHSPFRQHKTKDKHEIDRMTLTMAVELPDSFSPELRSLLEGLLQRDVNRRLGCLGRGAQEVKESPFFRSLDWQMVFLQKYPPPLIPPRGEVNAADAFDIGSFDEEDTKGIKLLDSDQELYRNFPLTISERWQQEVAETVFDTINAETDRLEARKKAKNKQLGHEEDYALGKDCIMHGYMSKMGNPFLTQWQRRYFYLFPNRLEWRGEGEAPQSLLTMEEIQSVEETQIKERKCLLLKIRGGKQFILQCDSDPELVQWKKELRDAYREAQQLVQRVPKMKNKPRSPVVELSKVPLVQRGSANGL
Put plainly: biochemical. Conditions: GRK2 IC50 (μM), 10 nM GRK2; 10 uM ATP.
Description: Positive and negative control wells received an equal volume of DMSO. The final DMSO concentration in the assay is 1%.
The plate was placed in centrifuge equipped with a spin-bucket rotor and spun for 1 min at 1000 rpm.
GRK2 enzymatic reactions were initiated with the addition of 2 μL/well of 50 nM GRK2 in assay buffer. Plates were centrifuged for 1 min at 1000 rpm. For negative control wells, the order of reagent addition was reversed: 10 μL/well ADP detection mix (see below) was added first, followed by the addition of 2 μL/well of the GRK2 solution. Reaction mixtures were incubated at ambient temperature for 2 hours.
Following incubation, the reactions were quenched with 10 μL/well of the Transcreener ADP detection mix. […] The plates were then centrifuged for 1 min at 1000 rpm.
Fluorescence polarization values of the reaction mixtures were read on a Safire II plate reader after a 60 min incubation at ambient temperature. Excitation wavelength=590 nm; emission wavelength=650 nm.
The fluorescence polarization data were converted to % activity as follows:
% activity=(sample−NC)/(PC−NC)*100
where NC is the mean of negative control (ADP detection mix added prior to GRK2 addition), and PC is the mean of positive control (GRK2 reaction without inhibitor). IC50 values are determined from a 4-parameter fit, using the following equation:
Y=Bottom+(Top−Bottom)/(1+10^((Log IC50-X)*Hill slope)),
where X=log10 of the compound concentration.
For the compound `COc1cccc(Cn2cnc3ccc(-c4cn[nH]c4)cc3c2=O)c1` [Compound 2, 3-(3-Methoxybenzyl)-6-(1H-pyrazol-4-yl)quinazolin-4(3H)-one], the IC50 is ~0.01 µM and 0.011 µM. The same measure, in the same setting: to `CC(c1cccc(C(=O)NCc2ccc(F)cc2)c1)n1cnc2ccc(-c3cn[nH]c3)cc2c1=O` (centres unmarked) [Compound 61, N-[(4-Fluorophenyl)methyl]-3-[1-[4-oxo-6-(1H-pyrazol-4-yl)quinazolin-3-yl]ethyl]benzamide] belongs 0.007 µM; to `O=c1c2cc(-c3cn[nH]c3)ccc2ncn1Cc1cccc(OCc2ccccc2)c1` [Compound 63, 3-[(3-Benzyloxyphenyl)methyl]-6-(1H-pyrazol-4-yl)quinazolin-4-one], 0.065 µM; to `O=c1c2cc(-c3cn[nH]c3)ccc2ncn1Cc1cccc(OC(F)(F)F)c1` [Compound 66, 6-(1H-Pyrazol-4-yl)-3-[[3-(trifluoromethoxy)phenyl]methyl]quinazolin-4-one], 22.2 µM. Same read-out and setting: under `O=C(NCc1c(F)cccc1F)c1cc(F)cc(Cn2cnc3ccc(-c4cn[nH]c4)cc3c2=O)c1` [Compound 72, N-(2,6-Difluorobenzyl)-3-fluoro-5-((4-oxo-6-(1H-pyrazol-4-yl)quinazolin-3(4H)-yl)methyl)benzamide] stands below 0.01 µM. As for `O=c1c2cc(-c3c[nH]nc3C(F)(F)F)ccc2ncn1Cc1c(F)cccc1F` [Compound 77, 3-[(2,6-Difluorophenyl)methyl]-6-[3-(trifluoromethyl)-1H-pyrazol-4-yl]quinazolin-4-one], the IC50 was above 20 µM. Turning to `O=c1c2cc(-c3cn[nH]c3)ccc2ncn1Cc1c(F)cccc1F` [Compound 78, 3-[(2,6-Difluorophenyl)methyl]-6-(1H-pyrazol-4-yl)quinazolin-4-one], the IC50 came to 0.801 µM. On the same count and under the same terms, under `O=c1c2cc(-c3ccc(F)nc3)ccc2ncn1Cc1ccccc1` [Compound 82, 3-Benzyl-6-(6-fluoro-3-pyridyl)quinazolin-4-one] stands above 100 µM. Still for that read-out and setting: under `O=C(NCc1ccc(F)cc1)c1cccc(-n2cnc3ccc(-c4cn[nH]c4)cc3c2=O)c1` [Compound C1, N-[(4-Fluorophenyl)methyl]-3-[4-oxo-6-(1H-pyrazol-4-yl)quinazolin-3-yl]benzamide] stands 1.63 µM.

The compound `O=C(NCc1ccc(F)cc1F)c1ccc(Cn2cnc3ccc(-c4cn[nH]c4)cc3c2=O)cc1` [Compound C2, N-[(2,4-Difluorophenyl)methyl]-4-[[4-oxo-6-(1H-pyrazol-4-yl)quinazolin-3-yl]methyl]benzamide] returned a half-inhibitory concentration (IC50) of 4.34 µM. Still for that read-out and setting: under `O=C(NCc1c(F)cccc1F)c1ccc(Cn2cnc3ccc(-c4cn[nH]c4)cc3c2=O)cc1` [Compound C3, N-[(2,6-Difluorophenyl)methyl]-4-[[4-oxo-6-(1H-pyrazol-4-yl)quinazolin-3-yl]methyl]benzamide] stands around 20 µM; under `O=c1c2cc(-c3cn[nH]c3)ccc2ncn1Cc1cccc2c1OCO2` [Compound C4, 3-(1,3-Benzodioxol-4-ylmethyl)-6-(1H-pyrazol-4-yl)quinazolin-4-one], 0.093 µM.

Take `O=C(NCc1ccc(F)cc1)c1cc(Cn2cnc3ccc(-c4cn[nH]c4)cc3c2=O)ccn1` [Compound C5, N-[(4-Fluorophenyl)methyl]-4-[[4-oxo-6-(1H-pyrazol-4-yl)quinazolin-3-yl]methyl]pyridine-2-carboxamide]: the IC50 was determined as 0.212 µM. The same measure, in the same setting: to `COCCNc1nccc(-c2ccc3ncn(Cc4cccc(OC)c4)c(=O)c3c2)n1` [Compound C6, 6-[2-(2-Methoxyethylamino)pyrimidin-4-yl]-3-[(3-methoxyphenyl)methyl]quinazolin-4-one] belongs above 50 µM.

A further assay addresses T1, GRK2. As to the kind of experiment: biochemical.
Details: not given
As for the experimental part:
hGRK2 LANCE Ultra In Vitro Assay
G-protein coupled receptor kinases (GR Kinases) desensitize activated G-protein coupled receptors (GPCRs), by phosphorylation of cytoplasmic loops or carboxyl-terminal tails of GPCRs. GRK2 is one of the 6 different GR kinases and is implicated in heart failure and diabetes.
This assay is sensitive and requires as low as 10 nM enzyme, in a total volume of 10 μL. In addition, the ATP concentration can be varied over a broad range, without interfering with the assay or changing the assay condition. […] Testing inhibitors routinely at both high and low ATP concentrations also enables identification of potential non-ATP competitive inhibitors.
Paroxetine was used as the reference compound in this assay.
Test compounds were dissolved in DMSO at 1 mM and were 3-fold serial diluted. The compound DMSO solutions were then added (100 nL) into a plate well using an acoustic dispenser. To each well was then added 20 nM GRK2 (5 μL) in assay buffer (20 mM HEPES, pH 7.5, 10 mM MgCl2, 0.001% Tween-20®). The plate was sealed and centrifuged at 1000 rpm for 1 min.
The plate and wells containing a mixture of GRK2 and test compound were incubated at ambient temperature for 30 min (prior to initializing the enzymatic reaction).
Enzyme reactions were initiated by the addition of 4.9 μL Substrates/Eu-Ab mix to each well.
The plates were sealed and centrifuged at 1000 rpm for 1 min.
The enzyme reactions were quenched by addition of 10 μL of 12 mM EDTA in 1× LANCE detection solution to each well. The plates were then incubated at ambient temperature for 30 min.
The raw HTRF data were converted to % active as follows:
% active=(sample−NC)/(PC−NC)*100
On to `COc1cccc(Cn2cnc3ccc(-c4cn[nH]c4)c(C#N)c3c2=O)c1` [Compound 1, 3-(3-Methoxybenzyl)-4-oxo-6-(1H-pyrazol-4-yl)-3,4-dihydroquinazoline-5-carbonitrile], for which the IC50 amounted to 0.005 µM. Regarding `COc1cccc(Cn2cnc3ccc(-c4cn[nH]c4)c(F)c3c2=O)c1` [Compound 3, 5-Fluoro-3-(3-methoxybenzyl)-6-(1H-pyrazol-4-yl)quinazolin-4(3H)-one], the half-maximal inhibitory concentration (IC50) came out at 0.007 µM. On the same count and under the same terms, to `COc1cccc(Cn2cnc3ccc(-c4cn[nH]c4)c(O)c3c2=O)c1` [Compound 4, 5-Hydroxy-3-(3-methoxybenzyl)-6-(1H-pyrazol-4-yl)quinazolin-4(3H)-one] belongs 0.009 µM; to `COc1cccc(Cn2cnc3ccc(-c4cn[nH]c4)c(OC)c3c2=O)c1` [Compound 5, 5-Methoxy-3-[(3-methoxyphenyl)methyl]-6-(1H-pyrazol-4-yl)quinazolin-4-one], 0.009 µM. Still for that read-out and setting: to `COc1cccc(Cn2cnc3cc(OC)c(-c4cn[nH]c4)cc3c2=O)c1` [Compound 6, 7-Methoxy-3-[(3-methoxyphenyl)methyl]-6-(1H-pyrazol-4-yl)quinazolin-4-one] belongs 0.016 µM; to `COc1cccc(Cn2cnc3ccc(-c4cn[nH]c4)c(Cl)c3c2=O)c1` [Compound 7, 5-Chloro-3-[(3-methoxyphenyl)methyl]-6-(1H-pyrazol-4-yl)quinazolin-4-one], 0.016 µM; to `CCOc1cccc(Cn2cnc3ccc(-c4cn[nH]c4)c(F)c3c2=O)c1` [Compound 8, 3-(3-Ethoxybenzyl)-5-fluoro-6-(1H-pyrazol-4-yl)quinazolin-4(3H)-one], 0.029 µM. On the same count and under the same terms, under `COc1cccc(Cn2cnc3c(F)cc(-c4cn[nH]c4)cc3c2=O)c1` [Compound 9, 8-Fluoro-3-[(3-methoxyphenyl)methyl]-6-(1H-pyrazol-4-yl)quinazolin-4-one] stands 0.093 µM; under `COc1cccc(Cn2c(C)nc3ccc(-c4ccnc(N)n4)cc3c2=O)c1` [Compound 10, 6-(2-Aminopyrimidin-4-yl)-3-[(3-methoxyphenyl)methyl]-2-methyl-quinazolin-4-one], 0.371 µM. The compound `COC(=O)C(c1cccc(OC)c1)n1cnc2ccc(-c3cn[nH]c3)cc2c1=O` (centres unmarked) [Compound 11, Methyl 2-(3-methoxyphenyl)-2-[4-oxo-6-(1H-pyrazol-4-yl)quinazolin-3-yl]acetate] returned an IC50 of 1.41 µM.

For the compound `COc1cccc(C(C(=O)O)n2cnc3ccc(-c4cn[nH]c4)cc3c2=O)c1` (centres unmarked) [Compound 12, (3-Methoxyphenyl)-2-[4-oxo-6-(1H-pyrazol-4-yl)quinazolin-3-yl]acetic acid], the IC50 amounted to 2.55 µM.

Staying with this assay, now noted: 10 nM GRK2; ATP 30 or 600 μM, not stated which; read-out: GRK2 Lancer IC50.
As to `COc1cccc(Cn2cnc3ccc(-c4cn[nH]c4)cc3c2=O)c1` [Compound 2, 3-(3-Methoxybenzyl)-6-(1H-pyrazol-4-yl)quinazolin-4(3H)-one], the IC50 is 0.006 µM.
